Measurements: PMC4750079, “Tackling amyloidogenesis in Alzheimer’s disease with A2V variants of Amyloid-β” (Scientific Reports, 2016)
Where a SMILES comes first, the peptide text is derived from it. [ ]: non-standard residue; d: D form.

Assays:
SH-SY5Y cells = assay: Toxicity of peptides on differentiated SH-SY5Y cells (MTT test); type: cell-based, human; conditions: 24 h
Procedure: Figure 2 Analysis of the effects of Aβ1-6WT(D), Aβ1-6A2V(D) and Aβ1-6A2VTAT(D) on neurotoxicity in cell models. SH-SY5Y cells were differentiated with 10 μM retinoic acid. […] Comparison of cell viability was performed by Student t-test.
(§1) Toxicity studies with Aβ1-6WT(D), Aβ1-6A2V(D) or Aβ1-6A2VTAT(D) and the short peptides’ ability to inhibit the toxicity induced by Aβ1-42WT in SH-SY5Y cell cultures were analyzed following previously described protocols. Each experiment was performed in triplicate; the data provided were obtained as the mean of three independent assays.

[1] = test system: Aβ1-42WT toxicity in SH-SY5Y cells; assay: Inhibition of the toxicity induced by Aβ1-42WT in SH-SY5Y cell cultures (MTT test); type: cell-based, human; conditions: differentiated SH-SY5Y, co-incubated with Aβ1-42WT, 24 h
Procedure: Figure 2 Analysis of the effects of Aβ1-6WT(D), Aβ1-6A2V(D) and Aβ1-6A2VTAT(D) on neurotoxicity in cell models. SH-SY5Y cells were differentiated with 10 μM retinoic acid. After 6 days the proper peptide was added to culture medium and cell viability was assessed after 24 h by MTT test. […] Conversely, Aβ1-42WT reduces cell viability by 35%. * Significance vs non-treated cells. (C,D) Both Aβ1-6WT(D) and Aβ1-6A2V(D) are able to counteract the toxic effect of Aβ1-42WT. […] Comparison of cell viability was performed by Student t-test.
as §1

Aβ1-42WT [2] = target: T1, Aβ1-42WT (Homo sapiens, UniProt P05067); assay: Polarized light and electron microscopy of Aβ1-42WT aggregates; type: biochemical; conditions: 20 days incubation, 37 °C, molar ratio 1:1 or 1:4
T1 construct: Aβ1-42WT oligomers were formed following incubation of Aβ1-42WT at a final concentration of 100 μM; made in house; host or cells: chemical synthesis (solid-phase Fmoc), no expression host
T1 sequence (P05067 672-713 limits assumed): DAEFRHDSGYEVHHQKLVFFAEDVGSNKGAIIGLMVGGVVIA
Procedure: Figure 3 Inhibition of aggregation of Aβ1-42WT by Aβ1-6A2VTAT(D). Polarized-light (A,B), electron microscopy (C,D) and atomic force microscopy (AFM) (E–H) studies showing the inhibitory effects of Aβ1-6A2VTAT(D) on amyloid formation, fibril production and oligomerization by Aβ1-42WT. In polarized-light and EM studies, both peptides were used at 0.125 mM, molar ratio = 1:1 or 1:4 respectively, with 20 days incubation. […] E,F: Representative Tapping mode of AFM images as determined by amplitude error data of Aβ1-42WT oligomers. Aβ1-42WT peptide 100 μM in phosphate buffer 50 mM, pH 7.4 was incubated at 4 °C for 24 h alone (E) (Z range: -10/ + 10 mV) or in presence of Aβ1-6A2VTAT(D) (F) (Z range: -10/ + 25 mV). The molar ratio of Aβ1-42WT to Aβ1-6A2VTAT(D) was 1:4. Scale bar: 1 μm, inset: 200 nm. (G,H): height plot profiles obtained along different lines traced on the topographic AFM images.
Aβ1-42WT, Aβ1-6A2VTAT(D) were dissolved in 10 mM NaOH and then diluted in an equal volume of 100 mM Tris-HCl, pH 7.0, to final concentrations (0.250 mM). […] The samples were incubated at 37 °C, and the tinctorial and ultrastructural properties of the peptide assemblies were determined at various intervals, ranging from 1 h to 20 days, as previously described. […]

Aβ1-42WT [3] = target: T1, Aβ1-42WT; assay: CD spectroscopy of Aβ1-42WT secondary structure; type: biochemical; conditions: data not shown
[4] = Brain levels after intraperitoneal administration (HPLC-MS/MS); type: in vivo; conditions: mice
Procedure: APP23 mice (Harlan, Correzzana, Italy) were treated by intraperitoneal injection with Aβ1-6A2VTAT(D) (10 mg/kg) or vehicle (saline solution) and sacrificed 1 h or 24 h after the last treatment. Aβ1-6A2VTAT(D) was quantified in mouse brain using HPLC-MS/MS[45]. The stability of Aβ1-6A2VTAT(D) to protease digestion was also investigated by MALDI TOF MS (See Supplementary Information for details).
To verify Aβ1-6A2VTAT(D) distribution in vivo, and particularly its bioavailability in the brain, we determined Aβ1-6A2VTAT(D) levels in mice brains after i.p. injection at a dose of 10 mg/kg. Mice were sacrificed at two intervals (1 h, 24 h). Aβ1-6A2VTAT(D) was then quantified in mouse brain using HPLC-MS/MS.
The quantitative levels of Aβ1-6A2VTAT(D) in the brain were determined by following a previously described procedure ^4.
Supplementary Figure 4S Aβ1-6A2VTAT(D) levels in mouse brain (n=4). Data are reported as mean ± SEM of peptide/mg tissue. Animals were treated i.p. at a dose of 10 mg/kg. Animals were sacrificed 1 h or 24 h after last administration following 21 […] treatments (*p < 0.05 T1-1h vs T1-24h and Student’s t-test).

APPswe/PS1dE9 mice = assay: Serum IgG against Aβ peptides after chronic treatment (ELISA); type: in vivo, mouse; conditions: once a week for 5 months, n = 9
Procedure: Figure 8 Serum levels of IgG against Aβ peptides after chronic treatment with Aβ1-6A2VTAT(D). To verify whether Aβ1-6A2VTAT(D) administration once a week for 5 months was associated with an immune response, we collected blood from mice before (T0) and at the end of the treatment (T2). Sera from saline (n = 8) and Aβ1-6A2VTAT(D) (n = 9) treated mice were tested induplicate using ELISA for the presence of IgG against Aβ1-6A2VTAT(D) (A), the full-length Aβ1-42 (B), Aβ1-6A2V (C) and TAT(D) (D).
Sera were collected from mice before (T0) and at the end of the treatment (5 months), and tested using ELISA for the presence of IgG against Aβ1-6A2VTAT(D), the full-length Aβ1-42, Aβ1-6A2V(D) and TAT(D) following previously described protocols for antigen-specific mouse IgG detection, except blocking buffer that was PBS 3% milk. Anti-Aβ1-42 IgG antibodies from 6E10 IgG clone (Covance), and sera from mice immunized with Aβ1-6A2VTAT(D) or with Aβ1-6A2V emulsified in Complete Freund’s adjuvant were used as positive controls.

Compound: CC(C)[C@@H](NC(=O)[C@H](N)CC(=O)O)C(=O)N[C@H](CCC(=O)O)C(=O)N[C@H](Cc1ccccc1)C(=O)N[C@H](CCCNC(=N)N)C(=O)N[C@H](Cc1c[nH]cn1)C(=O)NCC(=O)NCC(=O)NCC(=O)NCC(=O)NCC(=O)N[C@H](CCCNC(=N)N)C(=O)N[C@H](CCCCN)C(=O)N[C@H](CCCCN)C(=O)N[C@H](CCCNC(=N)N)C(=O)N[C@H](CCCNC(=N)N)C(=O)N[C@H](CCC(N)=O)C(=O)N[C@H](CCCNC(=N)N)C(=O)N[C@H](CCCNC(=N)N)C(=O)N[C@H](CCCNC(=N)N)C(=O)O [Aβ1-6A2VTAT(D)] (H-[dD][dV][dE][dF][dR][dH]GGGGG[dR][dK][dK][dR][dR][dQ][dR][dR][dR]-OH; N-terminus assumed)
- toxicity at concentrations between 1 and 5 μM (SH-SY5Y cells; 1 to 5 μM): not toxic
- toxicity at concentrations higher than 5 μM (SH-SY5Y cells; higher concentrations): reduces cell viability at higher concentrations
- effect on toxicity induced by Aβ1-42WT [1]: significant dose-dependent reduction of the toxicity
- amount of fibrils generated by Aβ1-42WT (electron microscopy) (Aβ1-42WT [2]): reduces the amount of fibrils generated by the full-length peptide
- formation of amyloid structures by Aβ1-42WT (polarized light) (Aβ1-42WT [2]): hinders the formation of amyloid structures
- acquisition of β-sheet conformation by Aβ1-42WT (Aβ1-42WT [3]): inhibits the acquisition of β-sheet conformation by Aβ1-42WT
- tissue level at time at 1 h ([4]; APP23, mouse, brain, ip, i.p. 10 mg/kg once a week for five months (21 weekly treatments), 1 h, HPLC-MS/MS, mean ± SEM, n=4, read-out: brain levels 1 h after last treatment): 145 ± 38.3 ng/g
- tissue level at time at 24 h ([4]; APP23, mouse, brain, ip, i.p. 10 mg/kg once a week for five months (21 weekly treatments), 24 h, HPLC-MS/MS, mean ± SEM, n=4, read-out: brain levels 24 h after last treatment): 62 ± 28.7 ng/g
- ability to cross the BBB ([4]; i.p. administration): able to cross the BBB
- serum IgG against Aβ1-6A2V peptide (APPswe/PS1dE9 mice): did not induce production of IgG
- serum IgG against Aβ1-6A2VTAT(D) (APPswe/PS1dE9 mice): not negligible levels
- serum IgG against TAT(D) (APPswe/PS1dE9 mice): 3 out of 9 mice displayed slightly increased levels
- serum IgG against full-length Aβ (APPswe/PS1dE9 mice): not negligible levels
